Source: PubChem BioAssay AID588764 (Broad Institute, 2011)
Results filed as inconclusive are left out. Activity calls are given as the source filed them. No rule for the calls is given here.

Target: Histone acetyltransferase RTT109 (Candida albicans (strain SC5314 / ATCC MYA-2876)) (UniProt Q5AAJ8)
Assay: Rtt109/Vps75 acetyltransferase inhibitor potency, dose response, biochemical, cherry-picked hits, plate reader (AID 588764)
Settings: Rtt109/Vps75 HAT activity; for activity change, negative = inhibition: at 19.5 µM (top of the series)

Chain of Histone acetyltransferase RTT109 (Candida albicans (strain SC5314 / ATCC MYA-2876)) (Q5AAJ8 whole entry, looked up): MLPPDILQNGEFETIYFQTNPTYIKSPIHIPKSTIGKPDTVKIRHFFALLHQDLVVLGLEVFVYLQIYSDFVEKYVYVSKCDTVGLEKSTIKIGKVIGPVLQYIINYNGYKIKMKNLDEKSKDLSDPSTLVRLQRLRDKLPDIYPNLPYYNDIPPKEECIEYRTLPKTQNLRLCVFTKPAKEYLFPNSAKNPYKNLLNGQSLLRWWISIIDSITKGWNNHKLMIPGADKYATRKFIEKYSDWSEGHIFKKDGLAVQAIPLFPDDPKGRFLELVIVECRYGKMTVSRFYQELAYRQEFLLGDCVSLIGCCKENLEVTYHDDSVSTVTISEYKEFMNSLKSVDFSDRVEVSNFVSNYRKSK

## CN(C)S(=O)(=O)Oc1ccccc1C(=O)Nc1ccccc1Cl
  activity change, negative = inhibition: inactive

## CC(C)c1ccc(NC(=O)NC(C)c2ccc3c(c2)OCO3)cc1 (stereo unspecified)
  activity change, negative = inhibition: inactive

## CCn1c(SCC(=O)Nc2cc(OC)c(OC)c(OC)c2)nnc1-c1cccs1
  activity change, negative = inhibition: inactive

## COC(=O)c1cccc(Oc2cccc(Cl)n2)c1
  activity change, negative = inhibition: inactive

## Cc1nc(CC(C)C)cc(C(=O)N2CCCC(CNS(=O)(=O)c3cccs3)C2)n1 (stereo unspecified)
  activity change, negative = inhibition: inactive

## O=C(CNC(=O)c1cccc(Br)c1)N/N=C/c1cccs1
  activity change, negative = inhibition: inactive

## Cc1ccc2nc(-c3ccc(NC(=S)NC4CC(C)(C)NC(C)(C)C4)cc3)sc2c1
  activity change, negative = inhibition: inactive

## O=c1c2ccccc2[se]n1-c1ccccc1
  AC50: 1.55 µM

## COc1ccc(-n2nc3c(c2NC(=O)c2ccc(N4C(=O)CCC4=O)cc2)CSC3)cc1
  activity change, negative = inhibition: inactive

## CCSS(=O)(=O)c1cccc2cccnc12
  AC50: 5.16 µM

## Cc1cc(NC(=O)CCCn2nc([N+](=O)[O-])c(Cl)c2C)no1
  activity change, negative = inhibition: inactive

## CCOc1ccc(N2C(=O)CSC2c2ccncc2)cc1 (stereo unspecified)
  activity change, negative = inhibition: inactive

## CN(CC(=O)Nc1ccc(F)cc1)C(=O)COc1ccccc1Cc1ccccc1
  activity change, negative = inhibition: inactive

## CC(C(=O)NC1CCS(=O)(=O)C1)N1C(=O)/C(=C/c2ccc(Cl)cc2)SC1=S (stereo unspecified)
  activity change, negative = inhibition: inactive

## Cc1nn(C2CCS(=O)(=O)C2)c2nc(C3CC3)cc(C(=O)Nc3ccc(C(N)=O)cc3)c12 (stereo unspecified)
  activity change, negative = inhibition: inactive

## COC(=O)c1cccc(N2C(=O)C(Cl)=C(N3CCOCC3)C2=O)c1
  AC50: 15.8 µM

## CCOC(=O)c1c(C)n(-c2ccc(C)cc2)c2ccc(OCC(O)CNCC3CCCO3)cc12 (stereo unspecified)
  activity change, negative = inhibition: inactive

## CN(c1ccc(C(=O)Nc2ccc3c(c2)OCO3)cc1)S(C)(=O)=O
  activity change, negative = inhibition: inactive

## O=C(Nc1ccc(O)c(-c2nc3ccccc3s2)c1)c1cc(=O)c2ccccc2o1
  activity change, negative = inhibition: inactive

## CCCCOc1ccc(C2C(C(=O)c3ccc(C)o3)=C(O)C(=O)N2Cc2ccco2)cc1 (stereo unspecified)
  activity change, negative = inhibition: inactive

## COc1ccc(C(=O)C(CCC(CNC(C)(C)C)C(=O)c2ccc(OC)cc2)CNC(C)(C)C)cc1 (stereo unspecified)
  activity change, negative = inhibition: inactive

## COc1ccc(CN(C)C(=O)c2cc(S(=O)(=O)N3CCCCCC3)ccc2OC)cc1OC
  activity change, negative = inhibition: inactive

## CCN(CC)CCOc1ccc2c(c1)C(=NNC(=O)c1ccccn1)c1cc(OCCN(CC)CC)ccc1-2
  activity change, negative = inhibition: inactive

## CC1Cc2cc(S(=O)(=O)N3CCC(C(=O)N(C)Cc4ccco4)CC3)ccc2N1C(=O)C1CCC1 (stereo unspecified)
  activity change, negative = inhibition: inactive

## CCCCS(=O)(=O)c1sc2nc(C)cc(C)c2c1N
  activity change, negative = inhibition: inactive

## CCCCS(=O)(=O)/C=C\C=C/S(=O)(=O)CCCC
  AC50: 7.19 µM

## CCCn1cc(S(=O)(=O)CC(=O)NC2CCCCC2)c2ccccc21
  activity change, negative = inhibition: inactive

## Cc1cccc(-n2c(SCC(N)=O)nc3c(c2=O)C2(CCCCC2)Cc2ccccc2-3)c1
  activity change, negative = inhibition: inactive

## COC(=O)c1ccc(N2C(=O)CC(SCC(=O)Nc3ccc(OC)cc3)C2=O)cc1 (stereo unspecified)
  activity change, negative = inhibition: inactive

## O=S(=O)(c1ccc(Cl)cc1)N1CCN(c2ncccn2)CC1
  activity change, negative = inhibition: inactive

## CN(C)CCCN(C(=O)CCOc1ccccc1)c1nc2c(F)cccc2s1
  activity change, negative = inhibition: inactive

## O=C(OCc1ccc(Br)cc1)c1ccncc1
  activity change, negative = inhibition: inactive

## O=C1Nc2cc(C(=O)NCCCN3CCCC3)ccc2S/C1=C\c1ccccc1
  activity change, negative = inhibition: inactive

## CN(C)c1ccc(/C=C/c2ccc3c4ccccc4ccc3[n+]2-c2ccccc2)cc1
  activity change, negative = inhibition: inactive

## COc1ccc2nc(NC(=O)CN3C(=O)NC4(CCCCC4)C3=O)sc2c1
  activity change, negative = inhibition: inactive

## CC(=O)Nc1ccc(OCC(=O)NCc2ccccc2)cc1
  activity change, negative = inhibition: inactive

## CC(=O)Nc1ccc(OCc2cccc([N+](=O)[O-])c2)cc1
  activity change, negative = inhibition: inactive

## Cc1ccc(NC(=O)c2cc(N3C(=O)C=CC3=O)ccc2N2CCOCC2)cc1
  AC50: 7.03 µM

## COc1ccc(C2CC(=O)C(C=NCCO)=C(O)C2)cc1 (stereo unspecified)
  activity change, negative = inhibition: inactive

## N#CC1=C(S)N(c2ccccc2)C(c2ccc(-c3cccc(Cl)c3)o2)NC1=O (stereo unspecified)
  AC50: 11.9 µM

## COc1ccc(N2CCN(C(=O)CSc3nnc(-c4cccnc4)n3-c3ccccc3)CC2)cc1
  activity change, negative = inhibition: inactive

## Cc1ccc(NC(=O)Cn2sc3nc(C)cc(C)c3c2=O)c(Cl)c1
  AC50: 0.831 µM

## CCCCNS(=O)(=O)c1ccc(NC(=O)Cc2ccccc2[N+](=O)[O-])cc1
  activity change, negative = inhibition: inactive

## CCN(CC)S(=O)(=O)c1ccc(C(=O)Nc2cc(S(=O)(=O)N3CCOCC3)ccc2N2CCN(C)CC2)cc1
  activity change, negative = inhibition: inactive

## C#CCOCCOCCOCCNc1nc(N2CCN(C(=O)[C@H](CCCN=C(N)N)n3cc(C(N)[C@@H](C)CC)nn3)CC2)nc(N2CCN(C(=O)[C@H](CCCCN)n3cc([C@@H](N)[C@H](C)CC)nn3)CC2)n1 (stereo partly specified)
  activity change, negative = inhibition: inactive

## O=C(NCCCN1CCN(c2ccccc2F)CC1)C1CCC(=O)N1C1CCCCC1 (stereo unspecified)
  activity change, negative = inhibition: inactive

## Cc1ccccc1-n1sc2cc(F)ccc2c1=O
  AC50: 5.9 µM

## Nc1ccc(Nc2ccncc2[N+](=O)[O-])cc1
  activity change, negative = inhibition: inactive

## COc1ccc(CNC(=O)C2(c3ccc(Cl)cc3)CC2)cc1
  activity change, negative = inhibition: inactive

## Fc1ccc(C2CC(c3ccco3)=Nc3ccccc3S2)cc1 (stereo unspecified)
  activity change, negative = inhibition: inactive

## COc1cccc(NC(=O)CSc2nc3c(sc4ccccc43)c(=O)n2CCN(C)C)c1
  activity change, negative = inhibition: inactive

## COc1ccc(-n2cnc3scc(-c4ccc(OC)c(OC)c4)c3c2=O)cc1
  activity change, negative = inhibition: inactive

## CC(/C=C1\SC(=S)N(C(C(=O)O)c2ccccc2)C1=O)=C\c1ccccc1 (stereo unspecified)
  activity change, negative = inhibition: inactive

## COc1ccccc1C(=O)NCC(=O)N=Nc1c(O)n(C(C)C)c2ccccc12
  activity change, negative = inhibition: inactive

## CCOC(=O)c1c(CSC(=N)N)n(C)c2cc(Br)c(OC(C)=O)cc12
  activity change, negative = inhibition: inactive

## CC1CCC2(CC1)NC(=S)N(c1ccccc1)N2 (stereo unspecified)
  activity change, negative = inhibition: inactive

## Cc1cc(C)nc(N2CCC(C(=O)Nc3ccc4c(c3)OCCO4)CC2)n1
  activity change, negative = inhibition: inactive

## CN(C)c1ccc(NC(=O)/C=C/c2ccccc2Cl)cc1
  activity change, negative = inhibition: inactive

## CCc1nnc(NC(=O)CN2C(=O)c3ccccc3C2=O)s1
  activity change, negative = inhibition: inactive

## C[C@H](NC(=O)c1ccco1)C(=O)Nc1ccc(S(=O)(=O)N2CCCC2)cc1
  activity change, negative = inhibition: inactive

## CC(C)c1nnc(NC(=O)CCC(=O)NCc2cccs2)s1
  activity change, negative = inhibition: inactive

## COc1cccc(C(=O)NCc2nnc(SCC(=O)Nc3nccs3)n2-c2cccc(C)c2)c1
  activity change, negative = inhibition: inactive

## O=C(NC(=S)Nc1ccc(Oc2ccccc2)cc1)c1ccc(Cl)cc1
  activity change, negative = inhibition: inactive

## O=C(Nc1nc(-c2nc3ccccc3s2)cs1)c1ccc(S(=O)(=O)N2CCOCC2)cc1
  activity change, negative = inhibition: inactive

## COc1cc(NC(=O)C(Cc2ccccc2)n2cccc2)cc(OC)c1 (stereo unspecified)
  activity change, negative = inhibition: inactive

## Cc1ccccc1C(=O)NCCNC(=O)c1ccco1
  activity change, negative = inhibition: inactive

## Cc1cccc(-n2c(O)c(/C=N/NC(=O)c3ccccc3Cl)c3ccccc3c2=O)n1
  activity change, negative = inhibition: inactive

## CSc1c(SCc2ccccc2)cnn(-c2ccccc2)c1=O
  activity change, negative = inhibition: inactive

## O=C(O)c1ccccc1NS(=O)(=O)c1cccc(-n2sc3ccccc3c2=O)c1
  AC50: 3.49 µM

## Cc1ccccc1N1C(S)=C(C#N)C(=O)NC1c1cccs1 (stereo unspecified)
  AC50: 17.7 µM

## Cc1ccc(NC(=S)Nc2ccc(F)cc2)cc1C
  activity change, negative = inhibition: inactive

## COc1cc(NC(=O)COc2c(C)cc(C)cc2[N+](=O)[O-])c(OC)cc1Cl
  activity change, negative = inhibition: inactive

## C=CCOc1ccc(/C(O)=C2\C(=O)C(=O)N(CCOC)C2c2cccnc2)cc1 (stereo unspecified)
  activity change, negative = inhibition: inactive

## Cc1cccc(N2C(S)=C(C#N)C(=O)NC2c2cccs2)c1 (stereo unspecified)
  AC50: 11.7 µM

## O=c1[nH]c2ccccc2n2c(-c3ccccc3)nnc12
  AC50: 1.98 µM

## O=C(CSc1nnc(Cc2cccs2)n1C1CCCCC1)N1CCN(C(=O)c2ccco2)CC1
  activity change, negative = inhibition: inactive

## O=C(O)c1cccc2c1NC(C(=O)O)C1CC(Sc3ccccc3[N+](=O)[O-])C(Cl)C21 (stereo unspecified)
  activity change, negative = inhibition: inactive

## O=C(c1nnsc1S(=O)c1ccc(Cl)cc1)N1CCOCC1 (stereo unspecified)
  AC50: 6.04 µM

## COc1cccc(/C=C2\SC(=S)N(C(C)C(=O)NC3C=CS(=O)(=O)C3)C2=O)c1 (stereo unspecified)
  activity change, negative = inhibition: inactive

## Cc1ccc2c(c1)sc(C)[n+]2CCCS(=O)(=O)[O-]
  activity change, negative = inhibition: inactive

## O=C(CN1CCCc2ccccc21)NCc1ccc2c(c1)OCO2
  activity change, negative = inhibition: inactive
